# Assay: Emulsification of a mixture of water and oil
# Assay type: physicochemical
# Conditions: with addition of the compound
# Excerpt: Therefore, it is understood that the novel ether compound of the present invention has good water-solubility. It was confirmed that a mixture of water and oil was emulsified with addition of the compound a1-1.
substance,measurement,value
dendrimer type tetraglycidyl polylauryl ether [a1-1],emulsification of a mixture of water and oil,emulsified

# From patent US8048840B2, “Ether compound” (Kao Corporation, priority 2007, dated 2011)
